Test results from patent US7973018B2, “Cell cycle arrest and apoptosis” (University of Utah Research Foundation, priority 2004, dated 2011).
Entries after “also recorded” stand apart in the source; their conditions may differ.

What was measured:
[1] = test system: BRCA1; assay: BRCA1 focus formation, immunofluorescence confocal microscopy; format: cell-based, human
Description: (§1) Immunofluorescence staining. HeLa cells were harvested 48 h posttransduction by trypsinization. Single-cell suspensions of minced thymic tissue were prepared for immunostaining 20 h after HIV-1NL4-3 infection. Cells were fixed with 2% paraformaldehyde in phosphate-buffered saline (PBS) for 35 min at 4° C. and then washed three times for 5 min each time in PBS. All subsequent steps were carried out at room temperature. Samples were blocked and permeabilized for 20 min in blocking buffer (3% bovine serum albumin (BSA), 0.2% Triton X-100, and 0.01% skim milk in PBS). Primary antibody (rabbit anti-γ-H2AX (48) or rabbit anti-BRCA1 (Bethyl Laboratories, Montgomery, Tex.)) was diluted 1:400 in incubation buffer (1% BSA and 0.02% Triton X-100 in PBS) and incubated with cells for 45 min. Cells were washed with PBS, after which secondary antibody (goat anti-rabbit immunoglobulin G (IgG)-AlexaFluor568 conjugate (Molecular Probes, Eugene, Oreg.)) diluted 1:500 in incubation buffer was applied for 35 min. Cells were washed with PBS as before and mounted on glass slides by using Fluor Save reagent (CalBiochem, San Diego, Calif.). Cells were visualized for γ-H2AX or BRCA1 immunostaining and green fluorescent protein (GFP) expression by scanning fluorescence confocal microscopy (FluoView FV300; Olympus, Melville, N.Y.).
(§2) Drug treatment. Cells were incubated with 10 mM hydroxyurea (HU) for 2 h before immunostaining was done.
(§3) Vpr expression induces γ-H2AX and BRCA1 focus formation. It was possible that Vpr, through ATR activation, would induce γ-H2AX (9) and BRCA1 (45) focus formation. To test this hypothesis, HeLa cells were infected with pHR-Vpr or pHR-GFP and, 48 h later, immunostained with γ-H2AX- or BRCA1-specific antibodies. As a positive control, nontransduced cells were treated for […] with 10 mM HU 10 min prior to immunostaining (46). Samples then were visualized by fluorescence scanning confocal microscopy (FIGS. 3A and B). Cells with multiple (10 or more), intense nuclear foci were manually counted. […]

[2] = test system: γ-H2AX; assay: γ-H2AX focus formation, immunofluorescence confocal microscopy; format: cell-based, human
Description: as §1, §2, §3

[3] = test system: ATM and ATR; settings: vpr-infected cells; references 5, 53; cited from earlier work
[4] = test system: ATR and ATM; settings: references 40, 53; cited from earlier work
[5] = test system: p53; design: key: P, phosphorylated; A, activated; N, necessary for G2 checkpoint activation; F, focus formation; ?, unknown; D, dispensable for G2 checkpoint activation; settings: ATR target p53; reference 41; cited from earlier work
[6] = test system: Chk1; settings: ATR target Chk1; reference 40; cited from earlier work
[7] = test system: HeLa cells; assay: Cell cycle analysis (G2 arrest) by flow cytometry in HeLa cells; format: cell-based, human; design: key: P, phosphorylated; A, activated; N, necessary for G2 checkpoint activation; F, focus formation; ?, unknown; D, dispensable for G2 checkpoint activation; settings: ATR target Rad17; this work
Description: Cell cycle analysis. At 48 h after infection, cells were detached by trypsinization, washed with fluorescence-activated cell sorting (FACS) buffer (2% FBS and 0.02% sodium azide in PBS), fixed with 2% paraformaldehyde in PBS, and permeabilized with 0.01% Triton X-100 in PBS for 15 min. Cells were washed again with FACS buffer, incubated in DNA staining buffer (10 μg of propidium iodide/ml and 11.25 kU of RNase A/ml in FACS buffer) for 15 min, and analyzed by FACScan flow cytometry for GFP expression or DNA content (Beckton Dickinson, Franklin Lakes, N.J.). In experiments involving transduction with lentivirus vectors, experiments with 90% transduction efficiency or higher were analyzed. […]
Lentivirus vectors. […] Vector titers were measured by infection of HeLa cells as described herein, followed by flow cytometric analysis of cells that were positive for the reporter molecule, GFP. Vector titers were calculated with the equation [(F×C0)/V]×D, where F is the frequency of GFP-positive cells found by flow cytometry, C0 is the total number of target cells at the time of infection, V is the volume of inoculum, and D is the virus dilution factor. […]
Rad17 is necessary for Vpr-mediated G2 arrest. […] At 48 h after transduction, cells were analyzed by flow cytometry for infection efficiency and DNA content, as reported by GFP expression and propidium iodide staining, respectively. […]

[8] = test system: BRCA1; assay: Western blot for BRCA1 phospho-serine 1423; format: cell-based, human; settings: HeLa cells infected with pHR-VPR, 48 hours post-transduction
Description: Western blotting procedures. All western blots were performed using the BioRad Criterion gel system (BioRad, Hercules, Calif.). Antibodies used were GADD45 (Santa Cruz Biotechnology, Santa Cruz, Calif.; sc-797), Actin (Santa Cruz Biotechnologies, Santa Cruz, Calif.; sc-797), CHK2 (Santa Cruz Biotechnology, Santa Cruz, Calif.; sc-8813), ATM (Novus Biologicals, Littleton, Colo.; catalog #100-104H1), phospho-JNK-Tyr183 (Cell Signaling Technology, Beverly, Mass.; catalog #9255S), phospho-p38 kinase (Promega, Madison; 15823207), JNK (Cell Signaling Technology, Beverly, Mass.; 9252), ATR (obtained from Dr. Paul Nghiem, Harvard), anti-rabbit secondary-HRP (Santa Cruz Biotechnology, Santa Cruz, Calif.; sc-2030), anti-goat secondary-HRP (Santa Cruz Biotechnology, Santa Cruz, Calif.; sc-2033), PARP (Cell Signaling Technology, Beverly, Mass.), BRCA1 phospho ser1423 (Bethyl Laboratories, Montgomery, Tex.) Rabbit primary antibodies against Rad17 (Santa Cruz Biotechnology, Santa Cruz, Calif.), and were applied for 90 min at room temperature. Blots were washed three times in TPBS (0.1% Tween 20 in PBS) for 10 min each time at room temperature.
Phosphorylation of BRCA1 at serine 1423 by HIV-1 Vpr is ATR-dependent. Following DNA damage, ATR phosphorylates BRCA1 at serine 1423 (45, 63). […]

[9] = nontransduced HeLa cells treated for 1 h with 10 mM HU
[10] = HeLa cells, 48 h after infection, 10 or more intense nuclear foci

NC(=O)NO [HU, hydroxyurea, reference compound]
cells exhibiting BRCA1 foci [1, 9]: ~65% | cells exhibiting γ-H2AX foci [2, 9]: Approximately 94%

Cn1c(=O)c2c(ncn2C)n(C)c1=O [caffeine]
effect on Vpr-induced apoptosis [3]: largely eliminated induction of apoptosis; also recorded: significantly reduces Vpr-induced apoptosis | relief of Vpr-induced G2 arrest [4]: completely relieve Vpr-induced G2 arrest

Vpr: HIV-1 accessory protein Vpr, expressed in cells from pHR-Vpr
Status in the presence of Vpr (reference or source): BRCA1 ([1]; ATR target BRCA1, this work): P, F (this work) | cells exhibiting BRCA1 foci [1, 10]: ~69% | Status in the presence of Vpr (reference or source): p53 [5]: D (41) | Status in the presence of Vpr (reference or source): Chk1 [6]: P, A (40) | Status in the presence of Vpr (reference or source): Rad17 [7]: N (this work) | Status in the presence of Vpr (reference or source): H2AX ([2]; ATR target H2AX, this work): P, F (this work) | cells exhibiting γ-H2AX foci [2, 10]: Approximately 93% | phosphorylation of BRCA1 at serine 1423 [8]: induced phosphorylation of BRCA1 at serine 1423
